# In patent US20090170846A1, “INHIBITORS OF THE HIV INTEGRASE ENZYME” (Pfizer Inc, priority 2005, published 2009):
# Where two headings read alike, the source gives them in different places.
# Key:
# [1] = test system: RF strain of HIV-1 in CEM-SS cells; assay: HIV-1 cell protection assay (XTT dye reduction); format: cell-based
# Experimental: HIV-1 Cell Protection Assay
# The antiviral activities of potential modulator compounds (test compounds) were determined in HIV-1 cell protection assays using the RF strain of HIV-1, CEM-SS cells, and the XTT dye reduction method (Weislow, O, S. et al., J. Natl. Cancer Inst 81: 577-586 (1989)). Subject cells were infected with HIV-1 RF virus at an moi of to affect about a 90% kill (for example, an moi in the range of from about 0.025 to about 0.819) or mock infected with medium only and added at 2×10^4 cells per well, with the addition of approximately 200 μL of medium, into 96 well plates containing half-log dilutions of test compounds. Six days later, 50 μl of XTT solution (1 mg/ml XTT tetrazolium and 20 nM phenazine methosulfate) were added to the wells and the plates were reincubated for four hours. Viability, as determined by the amount of XTT formazan produced, was quantified spectrophotometrically by absorbance at 450 nm.
# Data from CPE assays were expressed as the percent of formazan produced in compound-treated cells compared to formazan produced in wells of uninfected, compound-free cells. The fifty percent effective concentration (EC50) was calculated as the concentration of compound that affected an increase in the percentage of formazan production in infected, compound-treated cells to 50% of that produced by uninfected, compound-free cells. The 50% cytotoxicity concentration (CC50) was calculated as the concentration of compound that decreased the percentage of formazan produced in uninfected, compound-treated cells to 50% of that produced in uninfected, compound-free cells. The therapeutic index was calculated by dividing the cytotoxicity (CC50) by the antiviral activity (EC50).
# [2] = target: T1, Full-length wild type HIV-1 integrase (SF1) (Human immunodeficiency virus type 1 group M subtype B, UniProt P04585); assay: Integrase strand-transfer scintillation proximity assay; format: biochemical
# T1 construct: made in house; host or cells: E. coli BL21 (DE3)
# From the text: Integrase Strand-Transfer Scintillation Proximity Assay
# Oligonucleotides: Oligonucleotide #1-5′-(biotin)[…]-3′ (SEQ ID NO: 1) and oligonucleotide #2-5′-[…]-3′ (SEQ ID NO: 2), were synthesized by TriLink BioTechnologies, Inc. (San Diego, Calif.). The annealed product represents preprocessed viral ds-DNA derived from the LTR U5 sequence of the viral genome. A ds-DNA control to test for non-specific interactions was made using a 3′ di-deoxy derivative of oligonucleotide #1 annealed to oligonucleotide #2. The CA overhang at the 5′ end of the non-biotinylated strand of the ds-DNA was created artificially by using a complimentary DNA oligonucleotide shortened by 2 base pairs. This configuration eliminates the requisite 3′ processing step of the integrase enzyme prior to the strand-transfer mechanism.
# Host ds-DNA was prepared as an unlabeled and [^3H]-thymidine labeled product from annealed oligonucleotide #3-5-[…]-3′ (SEQ ID NO: 3), and oligonucleotide #4-1-5′-[…]-3′ (SEQ ID NO: 4), both synthesized by TriLink BioTechnologies, Inc. (San Diego, Calif.). The annealed product had overhanging 3′ ends of poly(dA). Host DNA was custom radiolabeled by PerkinElmer Life Sciences Inc. (Boston, Mass.) using an enzymatic method with a 12/1 ratio of [methyl-^3H]dTTP/cold ds-DNA to yield 5′-blunt end ds-DNA with a specific activity of >900 Ci/mmol. The radiolabeled product was purified using a NENSORB cartridge and stored in stabilized aqueous solution (PerkinElmer). The final radiolabeled product had six [^3H]-thymidine nucleotides at both 5′ ends of the host ds-DNA.
# Reagents: Streptavidin-coated polyvinyltoluene (PVT) SPA beads were purchased from Amersham Biosciences (Piscataway, N.J.). Cesium chloride was purchased from Shelton Scientific, Inc. (Shelton, Conn.). White, polystyrene, flat-bottom, non-binding surface, 96-well plates were purchased from Corning. All other buffer components were purchased from Sigma (St. Louis, Mo.) unless otherwise indicated.
# Enzyme Construction Full-length wild type HIV-1 integrase (SF1) sequence (amino acids 1-289) was constructed in a pET24a vector (Novagen, Madison, Wis.). The construct was confirmed through DNA sequencing.
# Enzyme Purification Full length wild-type HIV Integrase was expressed in E. coli BL21 (DE3) cells and induced with 1 mM isopropyl-1 thio-β-D-galactopyranoside (IPTG) when cells reached an optical density between 0.8-1.0 at 600 nm. Cells were lysed by microfluidation in 50 mM HEPES pH 7.0, 75 mM NaCl, 5 mM DTT, 1 mM 4-(2-Aminoethyl)benzenesulfonylfluoride HCl (AEBSF). Lysate was then centrifuged 20 minutes at 11 k rpm in GSA rotor in Sorvall RC-5B at 4° C. Supernant was discarded and pellet resuspended in 50 mM HEPES pH 7.0, 750 mM NaCl, 5 mM DTT, 1 mM AEBSF and homogenized in a 40 mL Dounce homogenizer for 20 minutes on ice. Homogenate was then centrifuged 20 minutes at 11 k rpm in SS34 rotor in Sorvall RC-5B at 4° C. Supernant was discarded and pellet resuspended in 50 mM HEPES pH 7.0, 750 mM NaCl, 25 mM CHAPS, 5 mM DTT, 1 mM AEBSF. Preparation was then centrifuged 20 minutes at 11 k rpm in SS34 rotor in Sorvall RC-5B at 4° C.
# Supernant was then diluted 1:1 with 50 mM HEPES pH 7.0, 25 mM CHAPS, 1 mM DTT, 1 mM AEBSF and loaded onto a Q-Sepharose column pre-equilibrated with 50 mM HEPES, pH 7.0, 375 mM NaCl, 25 mM CHAPS, 1 mM DTT, 1 mM AEBSF. The flow through peak was collected and NaCl diluted to 0.1 M with 50 mM HEPES pH 7.0, 25 mM CHAPS, 1 mM DTT, 0.5 mM AEBSF and loaded onto a SP-Sepharose column pre-equilibrated with 50 mM HEPES pH 7.0, 100 mM NaCl, 25 mM CHAPS, 1 mM DTT, 0.5 mM AEBSF. After washing the column with the equilibration buffer, a 100 to 400 mM NaCl gradient was run. The eluted integrase was concentrated and run on a S-300 gel diffusion column using 50 mM HEPES pH 7.0, 500 mM NaCl, 25 mM CHAPS, 1 mM DTT, 0.5 mM AEBSF. The peak from this column was concentrated to 0.76 mg/mL and stored at −70° C. and later used for strand transfer assays. […]
# [3] = Human immunodeficiency virus 1, 144 h, HIV-1 RF, CEM-SS cells, XTT, six days, read-out: EC50
# [4] = integrase strand-transfer SPA, read-out: IC50
# [5] = Human immunodeficiency virus 1, CEM-SS, 144 h
Compound,"EC50 [1, 3]","IC50 [2, 4]",IC50 [2],"EC50 [1, 5]"
"CC(=O)Nc1cn(Cc2ccc(F)cc2)c2cnc(C(=O)NO)cc12 [Example 1, 3-(acetylamino)-1-(4-fluorobenzyl)-N-hydroxy-1H-pyrrolo[2,3-c]pyridine-5-carboxamide]",11 nM,130 nM,–,–
"CC(=O)Nc1cn(Cc2ccc(F)cc2)c2cnc(C(=O)N(C)O)cc12 [Example 2, 3-(acetylamino)-1-(4-fluorobenzyl)-N-hydroxy-N-methyl-1H-pyrrolo[2,3-c]pyridine-5-carboxamide]",20 nM,–,–,–
"O=C(NO)c1cc2c(NS(=O)(=O)c3ccccc3)cn(Cc3ccc(F)cc3)c2cn1 [Example 3, 1-(4-fluorobenzyl)-N-hydroxy-3-[(phenylsulfonyl)amino]-1H-pyrrolo[2,3-c]pyridine-5-carboxamide]",21 nM,–,40.5 nM,–
"CN(O)C(=O)c1cc2c(NS(=O)(=O)c3ccccc3)cn(Cc3ccc(F)cc3)c2cn1 [Example 4, 1-(4-fluorobenzyl)-N-hydroxy-N-methyl-3-[(phenylsulfonyl)amino]-1H-pyrrolo[2,3-c]pyridine-5-carboxamide]",42 nM,360 nM,–,–
"CS(=O)(=O)Nc1cn(Cc2ccc(F)cc2)c2cnc(C(=O)NO)cc12 [Example 5, 1-(4-fluorobenzyl)-N-hydroxy-3-[(methylsulfonyl)amino]-1H-pyrrolo[2,3-c]pyridine-5-carboxamide]",5.2 nM,56 nM,–,–
"CN(O)C(=O)c1cc2c(NS(C)(=O)=O)cn(Cc3ccc(F)cc3)c2cn1 [Example 6, 1-(4-fluorobenzyl)-N-hydroxy-N-methyl-3-[(methylsulfonyl)amino]-1H-pyrrolo[2,3-c]pyridine-5-carboxamide]",30 nM,270 nM,–,–
"CONC(=O)c1cc2c(C(=O)NCCN3CCOCC3)cn(Cc3ccc(F)cc3)c2cn1 [Example 7, 1-(4-fluorobenzyl)-N~5~- methoxy-N~3~-(2-morpholin-4-ylethyl)-1H-pyrrolo[2,3-c]pyridine-3,5-dicarboxamide]",–,550 nM,–,62 nM
"CCN1CCCC1CNC(=O)c1cn(Cc2ccc(F)cc2)c2cnc(C(=O)NOC)cc12 (stereo not shown) [Example 8, N3~-[(1-ethylpyrrolidin-2-yl)methyl]-1-(4-fluorobenzyl)-N~5~- methoxy-1H-pyrrolo[2,3-c]pyridine-3,5-dicarboxamide]",–,1400 nM,–,700 nM
"CONC(=O)c1cc2c(C(=O)NCCCN3CCCC3=O)cn(Cc3ccc(F)cc3)c2cn1 [Example 9, 1-(4-fluorobenzyl)-N~5~- methoxy-N~3~-[3-(2-oxopyrrolidin-1-yl)propyl]-1H-pyrrolo[2,3-c]pyridine-3,5-dicarboxamide]",–,267 nM,–,42 nM
"CONC(=O)c1cc2c(C(=O)N3CCC[C@H]3CO)cn(Cc3ccc(F)cc3)c2cn1 [Example 10, 1-(4-fluorobenzyl)-3-{[(2S)-2-(hydroxymethyl)pyrrolidin-1-yl]carbonyl}-N-methoxy-1H-pyrrolo[2,3-c]pyridine-5-carboxamide]",–,1140 nM,–,40 nM
"CCN(CC)S(=O)(=O)c1cn(Cc2ccc(F)cc2)c2cnc(C(=O)NOC)cc12 [Example 49, 3-[(diethylamino)sulfonyl]-1-(4-fluorobenzyl)-N-methoxy-1H-pyrrolo[2,3-c]pyridine-5-carboxamide]",17 nM,–,–,–
"CN(O)C(=O)c1cc2c(S(=O)(=O)NCCCO)cn(Cc3ccc(F)cc3)c2cn1 [Example 50, 1-(4-fluorobenzyl)-N-hydroxy-3-{[(3-hydroxypropyl)amino]sulfonyl}-N-methyl-1H-pyrrolo[2,3-c]pyridine-5-carboxamide]",460 nM,–,–,–
"CONC(=O)c1cc2c(S(=O)(=O)NCCCO)cn(Cc3ccc(F)cc3)c2cn1 [Example 51, 1-(4-fluorobenzyl)-3-{[(3-hydroxypropyl)amino]sulfonyl}-N-methoxy-1H-pyrrolo[2,3-c]pyridine-5-carboxamide]",110 nM,–,–,–
"CONC(=O)c1cc2c(S(=O)(=O)Nc3cccnc3OC)cn(Cc3ccc(F)cc3)c2cn1 [Example 52, 1-(4-fluorobenzyl)-N-methoxy-3-{[(2-methoxypyridin-3-yl)amino]sulfonyl}-1H-pyrrolo[2,3-c]pyridine-5-carboxamide]",52 nM,–,–,–
"COc1ncccc1NS(=O)(=O)c1cn(Cc2ccc(F)cc2)c2cnc(C(=O)N(C)O)cc12 [Example 53, 1-(4-fluorobenzyl)-N-hydroxy-3-{((2-methoxypyridin-3-yl)amino]sulfonyl}-N-methyl-1H-pyrrolo[2,3-c]pyridine-5-carboxamide]",140 nM,–,–,–
"CONC(=O)c1cc2c(S(=O)(=O)N(C)CC3COCCO3)cn(Cc3ccc(F)cc3)c2cn1 (stereo not shown) [Example 54, 3-{[(1,4-dioxan-2-ylmethyl)(methyl)amino]sulfonyl}-1-(4-fluorobenzyl)-N-methoxy-1H-pyrrolo[2,3-c]pyridine-5-carboxamide]",48 nM,–,–,–
"CONC(=O)c1cc2c(S(=O)(=O)N3CCOCC3)cn(Cc3ccc(F)cc3)c2cn1 [Example 55, 1-(4-fluorobenzyl)-N-methoxy-3-(morpholin-4-ylsulfonyl)-1H-pyrrolo[2,3-c]pyridine-5-carboxamide]",25 nM,–,–,–
"CN(O)C(=O)c1cc2c(S(=O)(=O)N(C)CC3COCCO3)cn(Cc3ccc(F)cc3)c2cn1 (stereo not shown) [Example 56, 3-{[(1,4-dioxan-2-ylmethyl)(methyl)amino]sulfonyl}-1-(4-fluorobenzyl)-N-hydroxy-N-methyl-1H-pyrrolo[2,3-c]pyridine-5-carboxamide]",400 nM,–,–,–
"CN(O)C(=O)c1cc2c(S(=O)(=O)N3CCOCC3)cn(Cc3ccc(F)cc3)c2cn1 [Example 57, 1-(4-fluorobenzyl)-N-hydroxy-N-methyl-3-(morpholin-4-ylsulfonyl)-1H-pyrrolo[2,3-c]pyridine-5-carboxamide]",480 nM,–,–,–
